Structures are written as SMILES. Where two headings read alike, the source gives them in different places.

Assay [1] relates to C. albicans (ATCC strain 90028). Briefly: Antifungal microdilution broth assay (PrestoBlue), C. albicans. The settings on record: 100 μM; for inhibition at 100 µM: Candida albicans, ATCC90028, Table 4A, read-out: C. albicans inhibition (at 100 μM). It counts as cell-based, Candida albicans. The method, then: Sigma-Aldrich) was used as the base medium for testing. […] solution of morpholinepropanesulfonic acid (MOPS; Sigma-Aldrich) was added to the RPMI to a final concentration of 0.165 M for buffering (RPMI-MOPS). This medium was adjusted to a pH of 7.0 with 10 M NaOH and filter sterilized. C. albicans (ATCC strain 90028), C. [NT] strain 66032), and C. tropicalis (ATCC strain 750) were cultured on potato dextrose agar (Sigma-Aldrich) plates, and incubated at 35° C. for 24 hours. For antifungal testing, overnight colonies were adjusted to 1.5×10^3 cells/mL, hereafter referred to as the test inoculum. PrestoBlue® (Life Technologies, Invitrogen, Carlsbad, Calif.), a resazurin-based cell viability reagent that, in metabolically active cells, is reduced from blue, non-fluorescent resazurin, to red, fluorescent resorufin, was used to assess inhibition of yeast growth by the aurones. […] Following addition of aurone, plates were then incubated for 24 hours at 35° C. PrestoBlue was added to a final concentration of 10% in each well and fluorescence read at 560 nm excitation and 590 nm emission, per manufacturer instructions, using a SpectraMax M2e spectrophotometer (Molecular Devices, LLC, Sunnyvale, Calif.). To optimize the PrestoBlue reduction time, RFUs were collected at 15 minute intervals for 4 hours using a reference antifungal. […] IC50 determination was calculated using GraphPad Prism version 7.01 for Windows (GraphPad Software, Inc., La Jolla, Calif.) from the RFUs at dilution points. Calculations were made with a nonlinear regression after transforming the molar concentrations of the aurones into the logarithmic form. Graphing was accomplished utilizing the same program following a four parameter curve fitting sigmoidal plot of the data. All aurones and controls were tested in triplicate and all testing was repeated in at least three independent experiments.

Assay [2] concerns rat skeletal muscle cell line, L6. Briefly: cells. The assay is classed as cell-based.
In assay [3] the test system is Leishmania amazonensis promastigotes expressing beta-lactamase. The experiment in a line: microbe, parasite or virus in culture. The settings on record: for IC50: Leishmania amazonensis, read-out: IC50 L. amaz. It counts as cell-based.
In assay [4] the test system is Trypanosoma brucei brucei 427 cells. The experiment in a line: T. brucei culture and assay (PrestoBlue). The settings on record: mean of 2(+) independent trials, read-out: IC50 T. brucei. It counts as cell-based.
For assay [5], the system named is Trypanosoma cruzi Tulahuen cells expressing beta-galactosidase. Briefly: T. cruzi intracellular assay (beta-galactosidase, L6 host cells). Particulars: for IC50: Trypanosoma cruzi, TULAHUEN
Where [6] appears, read: Rattus norvegicus, Table 1, read-out: IC50 Toxicity (L6).
The mark [7] stands for this setting: Rattus norvegicus, Table 3A, weighted means of two or more independent trials, read-out: IC50 L6.
The mark [8] stands for this setting: read-out: IC50 T. cruzi, Table 1, intracellular assay, mean of 2(+) trials (^c one trial).
[9] abbreviates: read-out: IC50 T. cruzi, Table 2, intracellular assay, mean of 2(+) independent trials.
The mark [10] stands for this setting: read-out: IC50 TC-I, Table 3A, weighted means of two or more independent trials.
[11] abbreviates: Rattus norvegicus, Table 3C, weighted means of two or more independent trials, read-out: IC50 L6.
The mark [12] stands for this setting: read-out: IC50 TC-I, Table 3C, intracellular T. cruzi, weighted means of two or more independent trials.

As for `COc1ccc2c(c1)O/C(=C\c1ccc[nH]1)C2=O` [Aurone 5003], the inhibition at 100 µM in assay [1] was determined as 12.4%.

With `COc1ccc2c(c1)O/C(=C\c1ccc[nH]1)C2=O` [Aurone 5004], in assay [1] (Table 4A), the “C. albicans inhibition (at 100 μM)” value is 14.7%.

In the case of `Cc1ccc(/C=C2\Oc3ccccc3C2=O)cc1` [Aurone 9065, (Z)-2-(4-methylbenzylidene)benzofuran-3(2H)-one], the IC50 in assay [2] (setting [6]) was above 100 µM; in assay [2] (setting [7]) it was above 100 µM; in assay [2] (Table 2, L6 mammalian cells, read-out: IC50 Toxicity (L6)), above 100 µM; in assay [3], 1.37 µM; in assay [4] (Table 2), above 50 µM; in assay [4] (Trypanosoma brucei, Table 1), above 50 µM. Moreover, the half-maximal inhibitory concentration (IC50) in assay [5] (setting [8]), in assay [5] (setting [9]) and in assay [5] (setting [10]) was 8.63 µM each time. For the same molecule, the “Selectivity L6/La” value in assay [3] (Table 1) was above 72.99; in assay [3] (Table 2, L6 IC50 / L. amazonensis IC50) it was above 72.99. The “Selectivity L6/Tc” value was above 11.59 in assay [5] (Table 1, intracellular T. cruzi IC50) and above 11.59 in assay [5] (Table 2, L6 IC50 / T. cruzi IC50 (intracellular assay)). In addition, the “Selectivity L6/TC-I” value in assay [5] (Table 3A, estimated from highest L6 dose tested where no L6 IC50) was above 11.59.

Regarding `CN(C)c1ccc(/C=C2\Oc3ccccc3C2=O)cc1` [Aurone 9087, (Z)-2-(4-(dimethylamino)benzylidene)benzofuran-3(2H)-one], the IC50 in assay [2] (setting [6]) was 144 µM; in assay [3], 1.65 µM; in assay [4] (Trypanosoma brucei, Table 1) it was 39 µM; in assay [5] (setting [8]), 5.38 µM; in assay [5] (setting [9]), 5.38 µM; in assay [5] (read-out: T. cruzi IC50 dose), 5.38 µM. For the same molecule, the “selectivity for T. cruzi (L6/Tc)” value in assay [5] was determined as 26.83.

As to `Cc1ccc(/C=C2\Oc3ccccc3C2=O)o1` [Aurone 9251], the IC50 in assay [2] (setting [6]) came to 85.5 µM; in assay [2] (Rattus norvegicus, Table 3B, weighted means of two or more independent trials, read-out: IC50 L6) it was 85.5 µM; in assay [3], 2.36 µM; in assay [4] (Trypanosoma brucei, Table 1) it was 35.3 µM; in assay [5] (setting [8]) it was 3.57 µM; in assay [5] (read-out: IC50 TC-I, Table 3B, weighted means of two or more independent trials), 3.57 µM.

`O=C1/C(=C/c2cccc(O)c2)Oc2ccccc21` [Aurone 9252, (Z)-2-(3-hydroxybenzylidene)benzofuran-3(2H)-one]: the IC50 was above 100 µM in assay [2] (setting [6]); 1.52 µM in assay [3]; 34.9 µM in assay [4] (Trypanosoma brucei, Table 1); 16.5 µM in assay [5] (setting [8]); 16.5 µM in assay [5] (setting [9]).

Regarding `O=C1/C(=C/c2cccs2)Oc2c1ccc(O)c2O` [Sample 1001], the inhibition at 100 µM in assay [1] was 26%.

Take `O=C1/C(=C/c2ccc(Br)cc2)Oc2c1ccc(O)c2O` [Sample 1005]: the inhibition at 100 µM in assay [1] came to 43.9%.

Consider `COc1ccc(/C=C2\Oc3c(ccc(O)c3O)C2=O)cc1O` [Sample 1009], for which the inhibition at 100 µM in assay [1] is 99.4%.

For the molecule `COc1ccc(/C=C2\Oc3ccccc3C2=O)c(OC)c1OC` [Sample 2001], the inhibition at 100 µM in assay [1] is 21.9%. The IC50 in assay [2] (setting [7]) is above 100 µM; in assay [5] (setting [10]), above 50 µM.

Consider `COc1cc(/C=C2\Oc3ccccc3C2=O)cc(OC)c1OC` [Sample 2002], for which the inhibition at 100 µM in assay [1] came to 8.8%. Moreover, the IC50 is above 100 µM in assay [2] (setting [7]) and above 50 µM in assay [5] (setting [10]).

For `O=C1/C(=C/c2cccs2)Oc2ccccc21` [Sample 2004], in assay [1], the inhibition at 100 µM was 65.9%.

For `O=C1/C(=C/c2ccc(Br)cc2)Oc2ccccc21` [Sample 2009], the inhibition at 100 µM in assay [1] is 12.3%. Also, the IC50 in assay [2] (setting [7]) is above 100 µM; in assay [5] (setting [10]), 11.4 µM.

As to `O=C1/C(=C/c2ccc([N+](=O)[O-])cc2)Oc2ccccc21` [Sample 2010], the inhibition at 100 µM in assay [1] was found to be 3.3%. The IC50 in assay [2] (setting [7]) worked out at 249 µM; in assay [5] (setting [10]), 20 µM.

As to `COc1ccc(/C=C2\Oc3ccccc3C2=O)cc1OC` [Sample 2011], the inhibition at 100 µM in assay [1] is 14.2%. Besides, the concentration for half-maximal inhibition (IC50) stood at 51.9 µM in assay [2] (setting [7]) and 21.9 µM in assay [5] (setting [10]).

`O=C1/C(=C/C=C/c2ccccc2)Oc2ccccc21` [Sample 2013]: in assay [1], the inhibition at 100 µM came out at 64.6%. Also, the IC50 was found to be 58 µM in assay [2] (setting [11]) and 14.1 µM in assay [5] (setting [12]).

Regarding `N#Cc1ccc(/C=C2\Oc3ccccc3C2=O)cc1` [Sample 2014], the inhibition at 100 µM in assay [1] turned out to be 50.5%. Further, the IC50 in assay [2] (setting [7]) was 239 µM; in assay [5] (setting [10]) it was 23.5 µM.

On to `O=C1/C(=C/c2cccc([N+](=O)[O-])c2)Oc2ccccc21` [Sample 2015], for which, in assay [1], the inhibition at 100 µM turned out to be 2.2%. For the same molecule, the results for the IC50 in assay [2] (setting [7]) and in assay [5] (setting [10]) were 226 µM and 22.6 µM, respectively.

On to `O=C1/C(=C/c2ccc(-c3ccccc3)cc2)Oc2ccccc21` [Sample 2018], for which the inhibition at 100 µM in assay [1] turned out to be 59.8%. Also, the 50% inhibitory concentration (IC50) in assay [2] (setting [11]) was 298 µM; in assay [5] (setting [12]), 34.4 µM.

For the molecule `O=C1/C(=C/c2ccc[nH]2)Oc2ccccc21` [Sample 2021], the inhibition at 100 µM in assay [1] was 78.8%.

`O=C1/C(=C/c2ccco2)Oc2ccccc21` [Sample 2023]: in assay [1], the inhibition at 100 µM was found to be 88.5%.

Take `O=C1/C(=C/c2ncc[nH]2)Oc2ccccc21` [Sample 2026]: the inhibition at 100 µM in assay [1] came to 43.8%.

In the case of `O=C1/C(=C/c2cccs2)Oc2cc(O)ccc21` [Sample 2901], the inhibition at 100 µM in assay [1] amounted to 46.1%.

On to `Cc1ccc(/C=C2\Oc3cc(O)ccc3C2=O)cc1` [Sample 2904], for which, in assay [1], the inhibition at 100 µM came to 20%.

As to `O=C1/C(=C/c2ccc(Br)cc2)Oc2cc(O)ccc21` [Sample 2905], in assay [1], the inhibition at 100 µM turned out to be 16.6%.

As for `O=C1/C(=C/c2ccc[nH]2)Oc2cc(O)ccc21` [Sample 2906], the inhibition at 100 µM in assay [1] stood at 27.5%.

For the molecule `COc1ccc(/C=C2\Oc3cc(O)ccc3C2=O)cc1O` [Sample 2911], the inhibition at 100 µM in assay [1] came out at 40%.

For the molecule `COc1ccc(/C=C2\Oc3cc(O)ccc3C2=O)c(OC)c1OC` [Sample 2912], the inhibition at 100 µM in assay [1] is 54.8%.

For the molecule `COc1ccc2c(c1)O/C(=C\c1ccc(C)cc1)C2=O` [Sample 5002], the inhibition at 100 µM in assay [1] came out at 37.6%.

Turning to `COc1ccc2c(c1)O/C(=C\c1ccc(Br)cc1)C2=O` [Sample 5005], in assay [1], the inhibition at 100 µM was 22.4%.

`COc1ccc2c(c1)O/C(=C\c1ccc(C#N)cc1)C2=O` [Sample 5006]: the inhibition at 100 µM in assay [1] was determined as 19.4%.

`Cc1ccc(/C=C2\Oc3ccc(Br)cc3C2=O)cc1` [Sample 6000]: the inhibition at 100 µM in assay [1] turned out to be 6.1%.

In the case of `COc1cc(OC)c2c(c1)O/C(=C\c1ccc(C)cc1)C2=O` [Sample 7000], the inhibition at 100 µM in assay [1] is 45.6%.

Take `COc1cc(OC)c2c(c1)O/C(=C\c1ccc([N+](=O)[O-])cc1)C2=O` [Sample 7001]: in assay [1], the inhibition at 100 µM was found to be 12.6%.

In the case of `CCc1ccc(/C=C2\Oc3ccccc3C2=O)cc1` [Sample 8001], the inhibition at 100 µM in assay [1] came to 22.8%. For the same molecule, the IC50 was above 100 µM in assay [2] (setting [7]) and 11.4 µM in assay [5] (setting [10]).

Turning to `CC(C)c1ccc(/C=C2\Oc3ccccc3C2=O)cc1` [Sample 8002], in assay [1], the inhibition at 100 µM was 26.6%. For the same molecule, the IC50 in assay [2] (setting [7]) was 89 µM; in assay [5] (setting [10]) it was 16.6 µM.

Consider `O=C1/C(=C/c2cc(Br)c(Br)s2)Oc2ccccc21` [Sample 9050], for which the inhibition at 100 µM in assay [1] came to 37.4%.

For the molecule `O=C1/C(=C/c2sccc2Br)Oc2ccccc21` [Sample 9060], the inhibition at 100 µM in assay [1] came to 7.5%.

`O=C1/C(=C/c2cc(Br)cs2)Oc2ccccc21` [Sample 9061]: the inhibition at 100 µM in assay [1] was determined as 3.1%.

For `O=C1/C(=C/c2c[nH]c3ccccc23)Oc2ccccc21` [Sample 9062], the inhibition at 100 µM in assay [1] was 16.4%.

In the case of `O=C1/C(=C/c2cccc3[nH]ccc23)Oc2ccccc21` [Sample 9063], in assay [1], the inhibition at 100 µM stood at 24%.

For `O=C1/C(=C/c2ccc(CO)o2)Oc2ccccc21` [Sample 9067], the inhibition at 100 µM in assay [1] came to 17.6%.

`N#Cc1ccc(/C=C2\Oc3cc(O)ccc3C2=O)cc1` [Sample 9076]: the inhibition at 100 µM in assay [1] was determined as 7.5%.

Regarding `COc1ccc(/C=C2\Oc3ccccc3C2=O)cc1O` [Sample 9078], in assay [1], the inhibition at 100 µM turned out to be 45.6%. The half-inhibitory concentration (IC50) in assay [2] (setting [7]) was 70.7 µM.
